Data as given in US7494993B2, “Amide derivatives of 7-amino-3-phenyl-dihydropyrimido[4,5-d]pyrimidinones, their manufacture and use as pharmaceutical agents” (Hoffmann-La Roche Inc., priority 2004, dated 2009).

Legend:
[1] = target: T1, Src (p60^c-src, partially purified) (Homo sapiens, UniProt P12931); test: SRC-Inhibitor-Assay, time-resolved fluorescence kinase assay (Src); type: biochemical; settings: ATP 5 μM; enzyme pre-incubated with inhibitor 15 min at 15° C.
T1 construct: purchased UBI, Upstate Biotech, Inc
T1 sequence (P12931 whole entry, species assumed): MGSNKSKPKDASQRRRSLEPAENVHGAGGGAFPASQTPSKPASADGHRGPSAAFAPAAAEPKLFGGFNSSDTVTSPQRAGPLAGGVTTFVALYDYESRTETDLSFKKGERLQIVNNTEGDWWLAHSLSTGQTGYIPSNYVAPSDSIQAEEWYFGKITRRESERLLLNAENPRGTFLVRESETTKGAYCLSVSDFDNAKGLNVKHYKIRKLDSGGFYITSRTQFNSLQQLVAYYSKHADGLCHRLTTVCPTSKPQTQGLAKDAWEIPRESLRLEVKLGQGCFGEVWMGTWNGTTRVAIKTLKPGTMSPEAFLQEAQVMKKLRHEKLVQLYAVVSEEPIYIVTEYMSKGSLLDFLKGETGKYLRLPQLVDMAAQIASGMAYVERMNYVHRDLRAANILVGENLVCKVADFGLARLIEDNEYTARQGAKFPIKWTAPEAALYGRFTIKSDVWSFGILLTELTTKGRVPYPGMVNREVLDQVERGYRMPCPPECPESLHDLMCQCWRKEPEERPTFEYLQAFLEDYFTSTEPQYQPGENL
Procedure: (§1) The activity of the compounds according to this invention as inhibitors for the src-family tyrosine kinases was shown by using the following assay. • SRC-Inhibitor-Assay Parameters: • Reaction mixture: • ATP 5 μM • Peptide (Ro+Ja133-Ro): 10 μM • Ja133-Ro 196 nM • Ro 9.8 μM • PT66 230 ng/ml • Assay buffer: 4 mM MgCl2 • 2 mM TCEP • 50 mM HEPES • 0.1% Tween 20 • pH 7.3 • Enzyme: 2.5 U/ml • Inhibitor: max. 25 μM • min. 0.42 nM
(§2) Material: • Eu-labelled phosphotyrosine antibody: for Lck Cisbio Mab PT66-K, • for Src EG&G Wallac PT66 Eu-W1024 (all commercially available). • Peptides: Ro: NH2-A-E-E-E-I-Y-G-E-F-E-A-K-K-K-K-CONH2, and • Ja133-Ro: Ja133-G-Aminocaprylic acid-A-E-E-E-I-Y-G-E-F-E-A-K-K-K-K-CONH2, wherein Ja133 is LightCycler-Red 640-N-hydroxy succinimide ester; • whereby both peptides were synthesized by an optimized solid phase peptide synthesis protocol (Merrifield, Fed. Proc. Fed. Amer. Soc. Exp. Biol. 21 (1962) 412) on a Zinsser SMP350 peptide synthesizer. Shortly, the peptide was assembled on 160 mg (22.8 μmol scale) of a Rink-Linker modified polystyrene solid phase by repeatedly conjugating an twenty fold excess of amino acids each protected by temporary piperidine labile Fmoc- and permanent acid labile tert-Bu-, BOC- and O-tert-Bu-groups depending on the side chain function. The substrate sequence AEEEIYGEFEAKKKK was N-terminal additionally mounted with the spacer amino acids Aminocaprylic acid and Glycin. After cleavage of the N-terminal temporary protecting group the still attached and protected peptide was labeled with a 1.5 fold amount of LightCycler-Red 640-N-hydroxy succinimide ester (purchased from Roche Diagnostics GmbH) and triethylamine. After 3 hrs. the resin was washed with Dimethylformamide and Isopropanol until the eluates of the blue resin got colourless. […] The substrate was finally isolated by a preparative reverse phase HPLC purification.
(§3) The purification yielded 12.2 mg RP-HPLC single peak pure blue material (lyophilisate). The identity was proven by MALDI mass spectroscopy [2720.0]. • Enzymes: Upstate Lck (p56^kk, active), Upstate Src (p60^c-src, partially purified) were purchased from UBI, Upstate Biotech, Inc.
(§4) Time-resolved Fluorescence Assay: Reader: Perkin Elmer, Wallac Viktor 1420-040 multilabel counter; Liquid handling system: Beckman Coulter, Biomek 2000.
(§5) ATP, Tween™ 20, 4-(2-hydroxyethyl)-1-piperazineethanesulfonic acid (HEPES) were purchased from Roche Molecular Biochemicals, MgCl2 and MnCl2 were purchased from Merck Eurolab, Tris(2-carboxyethyl)phosphine hydrochloride (TCEP) was purchased from Pierce, 384 Well low volume fluorescence plates was purchased from Falcon.
(§6) At first the enzyme is pre-incubated for 15 min. at 15° C. in aqueous solution with corresponding amounts of inhibitors according to this invention. Then the phosphorylation reaction is started by adding a reaction mixture, containing ATP, Peptide and PT66, and subsequent shaking. The proceeding of this reaction is immediately monitored using time resolved fluorescence spectroscopy in a suitable well plate reader.
(§7) The IC50-values can be obtained from the reaction rates by using a non-linear curve fit (XLfit software (ID Business Solution Ltd., Guilford, Surrey, UK))

Lck (p56^kk, active) = target: T2, Lck (p56^kk, active) (Homo sapiens, UniProt P06239); test: SRC-Inhibitor-Assay, time-resolved fluorescence kinase assay (Lck); type: biochemical; settings: ATP 5 μM; enzyme pre-incubated with inhibitor 15 min at 15° C.
T2 construct: purchased UBI, Upstate Biotech, Inc
T2 sequence (P06239 whole entry, species assumed): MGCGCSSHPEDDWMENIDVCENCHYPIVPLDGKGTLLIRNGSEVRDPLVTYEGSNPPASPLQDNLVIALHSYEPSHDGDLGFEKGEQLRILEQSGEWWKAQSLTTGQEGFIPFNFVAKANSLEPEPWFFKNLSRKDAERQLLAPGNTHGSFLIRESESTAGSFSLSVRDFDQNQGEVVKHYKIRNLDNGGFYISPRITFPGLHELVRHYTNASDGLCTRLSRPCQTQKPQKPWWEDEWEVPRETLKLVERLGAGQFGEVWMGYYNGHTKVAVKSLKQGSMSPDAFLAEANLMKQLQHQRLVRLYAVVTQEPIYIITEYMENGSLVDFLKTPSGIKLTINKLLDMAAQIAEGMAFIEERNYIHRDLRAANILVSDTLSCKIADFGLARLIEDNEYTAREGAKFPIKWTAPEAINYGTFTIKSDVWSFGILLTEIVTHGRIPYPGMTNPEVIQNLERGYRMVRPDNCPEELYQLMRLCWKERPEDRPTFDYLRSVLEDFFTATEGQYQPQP
Procedure: as §1, §2, §3, §4, §5, §6, §7

Row | SMILES | IC50 [1] [nM] | IC50 (Lck (p56^kk, active)) [nM]
1 | CN1C(=O)N(c2cc(NC(=O)c3ccc(-c4ccccc4)cc3)ccc2Cl)Cc2cnc(N)nc21 [Example 1, Biphenyl-4-carboxylic acid[3-(7-amino-1-methyl-2-oxo-1,4-dihydro-2H-pyrimido[4,5-d]pyrimidin-3-yl)-4-chloro-phenyl]-amide] | 50 to 150 | 50 to 150
2 | CN1C(=O)N(c2cc(NC(=O)c3cccc(-c4ccccc4)c3)ccc2Cl)Cc2cnc(N)nc21 [Example 2-3, Biphenyl-3-carboxylic acid [3-(7-amino-1-methyl-2-oxo-1,4-dihydro-2H-pyrimido[4,5-d]pyrimidin-3-yl)-4-chloro-phenyl]-amide] | 50 to 150 | 50 to 150
3 | CN1C(=O)N(c2cc(NC(=O)c3ccc(N4CCOCC4)cc3)ccc2Cl)Cc2cnc(N)nc21 [Example 2-7, N-[3-(7-Amino-1-methyl-2-oxo-1,4-dihydro-2H-pyrimido[4,5-d]pyrimidin-3-yl)-4-chloro-phenyl]-4-morpholin-4-yl-benzamide] | 73.5 | 168
4 | CN1C(=O)N(c2cc(NC(=O)C=Cc3ccccc3)ccc2Cl)Cc2cnc(N)nc21 [Example 2-14, N-[3-(7-Amino-1-methyl-2-oxo-1,4-dihydro-2H-pyrimido[4,5-d]pyrimidin-3-yl)-4-chloro-phenyl]-3-phenyl-acrylamide] | 41 | 38.5
5 | CN1C(=O)N(c2cc(NC(=O)c3cccc4ccccc34)ccc2Cl)Cc2cnc(N)nc21 [Example 2-15, Naphthalene-1-carboxylic acid [3-(7-amino-1-methyl-2-oxo-1,4-dihydro-2H-pyrimido[4,5-d]pyrimidin-3-yl)-4-chloro-phenyl]-amide] | 50 to 150 | 50 to 150
6 | CN1C(=O)N(c2cc(NC(=O)c3ccc(-c4ccccn4)cc3)ccc2Cl)Cc2cnc(N)nc21 [Example 2-22, N-[3-(7-Amino-1-methyl-2-oxo-1,4-dihydro-2H-pyrimido[4,5-d]pyrimidin-3-yl)-4-chloro-phenyl]-4-pyridin-2-yl-benzamide] | 50 to 150 | 50 to 150
7 | CN1C(=O)N(c2cc(NC(=O)c3ccc(-c4ccc[nH]4)cc3)ccc2Cl)Cc2cnc(N)nc21 [Example 2-24, N-[3-(7-Amino-1-methyl-2-oxo-1,4-dihydro-2H-pyrimido[4,5-d]pyrimidin-3-yl)-4-chloro-phenyl]-4-(1H-pyrrol-2-yl)-benzamide] | 50 to 150 | 50 to 150
